Assay results taken from ChEMBL document CHEMBL5038655, “Development of Novel Dihydrofuro[3,4-d]pyrimidine Derivatives as HIV-1 NNRTIs to Overcome the Highly Resistant Mutant Strains F227L/V106A and K103N/Y181C” (J Med Chem, 2022).
≈ marks a conversion by molar mass, not a printed value.

Assays:
[1] = Selectivity index, ratio of CC50 for human MT4 cells to EC50 for antiviral activity against HIV-1 IIIB harboring K103N/Y181C double mutant infected in human MT4 cells; type: toxicity, cell-based; conditions: read-out: Ratio CC50/EC50
[2] = Aqueous solubility of the compound at pH 2.0 by HPLC analysis; type: physicochemical; conditions: buffer
[3] = Clearance in Sprague-Dawley rat at 2 mg/kg, iv measured upto 10 hrs by LC-MS/MS analysis; type: ADME, organism-based; conditions: in vivo
[4] = Terminal half life in Sprague-Dawley rat at 10 mg/kg, po measured upto 12 hrs by LC-MS/MS analysis; type: ADME, organism-based; conditions: in vivo, read-out: beta t1/2 (converted)
[5] = Cmax in Sprague-Dawley rat at 10 mg/kg, po measured upto 12 hrs by LC-MS/MS analysis; type: ADME, organism-based; set-up: route oral, dose 10 mg/kg, time <=12; conditions: in vivo
[6] = Aqueous solubility of the compound at pH 7.0 by HPLC analysis; type: physicochemical; conditions: buffer
[7] = AUC(0 to t) in Sprague-Dawley rat at 10 mg/kg, po measured upto 12 hrs by LC-MS/MS analysis; type: ADME, organism-based; set-up: route oral, dose 10 mg/kg, time <=12; conditions: in vivo
[8] = AUC(0 to t) in Sprague-Dawley rat at 2 mg/kg, iv measured upto 10 hrs by LC-MS/MS analysis; type: ADME, organism-based; set-up: route intravenous, dose 2 mg/kg, time <=10; conditions: in vivo
[9] = system: Human immunodeficiency virus 1; test: Potency index, ratio of rilpivirine EC50 to test compound EC50 for antiviral activity against HIV-1 harboring reverse transcriptase Y188L mutant infected in human MT4 cells assessed as protection against virus-induced cytopathic effect incubated for 5 days by MTT assay; type: functional; conditions: time 5 day
[10] = Tmax in Sprague-Dawley rat at 10 mg/kg, po measured upto 12 hrs by LC-MS/MS analysis; type: ADME, organism-based; conditions: in vivo
[11] = Tmax in Sprague-Dawley rat at 2 mg/kg, iv measured upto 10 hrs by LC-MS/MS analysis; type: ADME, organism-based; conditions: in vivo
[12] = system: Human immunodeficiency virus 1; test: Antiviral activity against HIV-1 harboring reverse transcriptase K103N mutant infected in human MT4 cells assessed as protection against virus-induced cytopathic effect incubated for 5 days by MTT assay; conditions: Human immunodeficiency virus 1, MT4, 120 h
[13] = Oral bioavailability in Sprague-Dawley rat at 10 mg/kg measured upto 12 hrs by LC-MS/MS analysis; type: ADME, organism-based; conditions: in vivo
[14] = system: Human immunodeficiency virus 1; test: Antiviral activity against HIV-1 IIIB infected in human MT4 cells assessed as protection against virus-induced cytotoxicity incubated for 5 days by MTT assay; type: functional, organism-based; conditions: Human immunodeficiency virus 1, IIIB, MT4, 120 h
[15] = AUC(0 to infinity) in Sprague-Dawley rat at 2 mg/kg, iv measured upto 10 hrs by LC-MS/MS analysis; type: ADME, organism-based; set-up: route intravenous, dose 2 mg/kg, time <=10; conditions: in vivo
[16] = Aqueous solubility of the compound at pH 7.4 by HPLC analysis; type: physicochemical; conditions: buffer
[17] = system: Human immunodeficiency virus 1; test: Antiviral activity against HIV-1 harboring reverse transcriptase E138K mutant infected in human MT4 cells assessed as protection against virus-induced cytopathic effect incubated for 5 days by MTT assay; conditions: Human immunodeficiency virus 1, MT4, 120 h
[18] = system: Human immunodeficiency virus 1; test: Antiviral activity against HIV-1 harboring reverse transcriptase Y181C mutant infected in human MT4 cells assessed as protection against virus-induced cytopathic effect incubated for 5 days by MTT assay; conditions: Human immunodeficiency virus 1, MT4, 120 h
[19] = system: Human immunodeficiency virus 1; test: Potency index, ratio of rilpivirine EC50 to test compound EC50 for antiviral activity against HIV-1 harboring reverse transcriptase F227L/V106A mutant infected in human MT4 cells assessed as protection against virus-induced cytopathic effect incubated for 5 days by MTT assay; type: functional; conditions: time 5 day
[20] = system: Human immunodeficiency virus 1; test: Antiviral activity against HIV1 L1001 infected in human MT4 cells assessed as protection against virus-induced cytopathic effect incubated for 5 days by MTT assay; type: functional, organism-based; conditions: Human immunodeficiency virus 1, L1001, MT4, 120 h
[21] = Cmax in Sprague-Dawley rat at 2 mg/kg, iv measured upto 10 hrs by LC-MS/MS analysis; type: ADME, organism-based; set-up: route intravenous, dose 2 mg/kg, time <=10; conditions: in vivo
[22] = biological target: Human immunodeficiency virus type 1 reverse transcriptase (Human immunodeficiency virus 1, UniProt Q72547); test: Inhibition of wild type HIV-1 reverse transcriptase using biotin-labelled dNTPs as substrate incubated for 2 hrs by ELISA
[23] = AUC(0 to infinity) in Sprague-Dawley rat at 10 mg/kg, po measured upto 12 hrs by LC-MS/MS analysis; type: ADME, organism-based; set-up: route oral, dose 10 mg/kg, time <=12; conditions: in vivo
[24] = system: Human immunodeficiency virus 1; test: Antiviral activity against HIV-1 IIIB harboring K103N/Y181C double mutant infected in human MT4 cells assessed as protection against virus-induced cytotoxicity incubated for 5 days by MTT assay; type: functional, organism-based; conditions: Human immunodeficiency virus 1, IIIB, MT4, 120 h
[25] = Selectivity index, ratio of CC50 for human MT4 cells to EC50 for antiviral activity against HIV-1 IIIB infected in human MT4 cells; type: toxicity, cell-based; conditions: MT4 cells (uninfected and infected with HIV-1 IIIB), read-out: Ratio CC50/EC50
[26] = system: Human immunodeficiency virus 1; test: Antiviral activity against HIV-1 harboring reverse transcriptase Y188L mutant infected in human MT4 cells assessed as protection against virus-induced cytopathic effect incubated for 5 days by MTT assay; conditions: Human immunodeficiency virus 1, MT4, 120 h
[27] = Terminal half life in Sprague-Dawley rat at 2 mg/kg, iv measured upto 10 hrs by LC-MS/MS analysis; type: ADME, organism-based; conditions: in vivo, read-out: beta t1/2 (converted)
[28] = Acute toxicity in Kunming mouse assessed as change in body weight at 2000 mg/kg, po measured for 7 days; type: organism-based; conditions: in vivo, time 7 day
[29] = Cytotoxicity against human MT4 cells assessed as reduction in cell viability incubated for 5 days by MTT assay; type: toxicity, cell-based; conditions: time 5 day
[30] = system: Human immunodeficiency virus 1; test: Antiviral activity against HIV-1 harboring reverse transcriptase F227L/V106A mutant infected in human MT4 cells assessed as protection against virus-induced cytopathic effect incubated for 5 days by MTT assay; conditions: Human immunodeficiency virus 1, MT4, 120 h
[31] = system: Human immunodeficiency virus 1; test: Potency index, ratio of etravirine EC50 to test compound EC50 for antiviral activity against HIV-1 harboring reverse transcriptase F227L/V106A mutant infected in human MT4 cells assessed as protection against virus-induced cytopathic effect incubated for 5 days by MTT assay; type: functional; conditions: time 5 day

Work on `Cc1cc(/C=C/C#N)cc(C)c1Oc1nc(NC2CCN(Cc3ccc(C(N)=O)cc3)CC2)nc2c1COC2` yielded a selectivity ratio [1] of 2060, a solubility [2] of 187 µg/mL (≈ 356 µM) and a clearance [3] of 66.3 mL/min/kg. The half-life [4] was 1.05 h, the Cmax [5] was 250 ng/mL and the solubility [6] was 25.4 µg/mL (≈ 48.4 µM). The AUC(0-t) at 12 h [7] was 801 ng·h/mL, the AUC(0-t) at 10 h [8] was 409 ng·h/mL and the “Ratio EC50” value [9] was 4.4. The Tmax [10] was 2.12 h, the Tmax [11] was 1.98 min and the EC50 [12] was 2.14 nM. For the same compound, the bioavailability [13] was 32.1%, the EC50 [14] was 2.85 nM and the AUC(0-inf) [15] was 503 ng·h/mL. For the same compound, the solubility [16] was 5.24 µg/mL (≈ 9.99 µM), the EC50 [17] was 6.76 nM and the EC50 [18] was 6.09 nM. For the same compound, the “Ratio EC50” value [19] was 8.4, the EC50 [20] was 3.9 nM and the Cmax [21] was 480 ng/mL. The IC50 [22] was 140 nM, the AUC(0-inf) [23] was 809 ng·h/mL and the EC50 [24] was 11.7 nM. The selectivity ratio [25] was 8450, the EC50 [26] was 18 nM and the half-life [27] was 0.88 h. For the same compound, the Activity [28] was “Non-Toxic”, the CC50 at 120 h [29] was 24100 nM and the EC50 [30] was 9.67 nM.
In the case of `Cc1cc(/C=C/C#N)cc(C)c1Oc1nc(NC2CCN(c3ccc(NS(C)(=O)=O)cc3)CC2)nc2c1COC2`, the selectivity ratio [1] is reported as 1390, the “Ratio EC50” value [31] is reported as 3.6 and the solubility [2] is reported as 124 µg/mL (≈ 221 µM). It also gave a clearance [3] of 36.7 mL/min/kg, a half-life [4] of 1.47 h and a Cmax [5] of 307 ng/mL. The solubility [6] was 10.1 µg/mL (≈ 18 µM), the AUC(0-t) at 12 h [7] was 727 ng·h/mL and the AUC(0-t) at 10 h [8] was 903 ng·h/mL. The Tmax [10] was 1 h, the Tmax [11] was 1.98 min and the EC50 [12] was 6.91 nM. The bioavailability [13] was 16.6%, the EC50 [14] was 6.17 nM and the AUC(0-inf) [15] was 908 ng·h/mL. It also gave a solubility [16] of 2.1 µg/mL (≈ 3.75 µM), an EC50 [17] of 7.66 nM and an EC50 [18] of 8.91 nM. The “Ratio EC50” value [19] was 14, the EC50 [20] was 12.4 nM and the Cmax [21] was 756 ng/mL. It also gave an IC50 [22] of 150 nM, an AUC(0-inf) [23] of 753 ng·h/mL and an EC50 [24] of 27.9 nM. It also gave a selectivity ratio [25] of 6290, an EC50 [26] of 28.3 nM and a half-life [27] of 1.11 h. For the same compound, the Activity [28] was “Non-Toxic”, the CC50 at 120 h [29] was 38800 nM and the EC50 [30] was 5.79 nM.
